Where a name gives a salt, the structure may show the parent alone.
Biological target: T1, human B1 (Homo sapiens, UniProt P46663)
T1 construct: host or cells: CHO-K1
T1 sequence (P46663 1-353): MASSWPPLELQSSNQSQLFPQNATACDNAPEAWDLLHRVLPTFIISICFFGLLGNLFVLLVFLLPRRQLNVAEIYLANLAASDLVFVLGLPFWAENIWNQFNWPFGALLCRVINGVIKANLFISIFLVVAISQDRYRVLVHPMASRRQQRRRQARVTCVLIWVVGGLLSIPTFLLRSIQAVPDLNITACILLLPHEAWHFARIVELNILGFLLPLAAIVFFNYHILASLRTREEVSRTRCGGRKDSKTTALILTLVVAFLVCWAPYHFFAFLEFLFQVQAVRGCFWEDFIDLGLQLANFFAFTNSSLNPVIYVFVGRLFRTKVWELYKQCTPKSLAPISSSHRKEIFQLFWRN
Assay: Calcium flux assay for Bradykinin B1 antagonist, CHO-K1 cell line expressing human B1
Format: cell-based
Conditions: CHO-K1 cells expressing human B1, agonist Lys-(Des-Arg)-Bradykinin, read-out: Potency (IC50 value against human B1)
Method in brief: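 Inhibition of B1 agonist-evoked intracellular Ca2+ rise was followed by continuous fluorescence at 538 nm, with integrated, background-normalized signals plotted versus log compound concentration. Test compounds (eight 10-fold dilutions, triplicate, 1% DMSO final) were added 30 min at 25° C beforehand to Fluo-4AM-loaded human B1 CHO-K1 cells in pH 7.4 assay buffer.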

SMILES | IC50 [nM]
COc1cc(C)c(S(=O)(=O)N(Cc2cc(C(=O)N3CCN(CC4CCN(C)CC4)CC3)co2)C2CC2)c(C)c1 [Ex 105, N-Cyclopropyl-4-methoxy-2,6-dimethyl-N-{[4-({4-[(1-methylpiperidin-4-yl)methyl]piperazin-1-yl}carbonyl)furan-2-yl]methyl}benzenesulfonamide trifluoroacetate] | 10 to 100
COc1cc(C)c(S(=O)(=O)N(Cc2nc(C(=O)N(C)Cc3ccc(CN4CCC(C)(O)C4)cc3)co2)C2CC2)c(C)c1 (stereo not shown) [Ex 198, 2-({Cyclopropyl[(4-methoxy-2,6-dimethylphenyl)sulfonyl]amino}methyl)-N-{4-[(3-hydroxy-3-methylpyrrolidin-1-yl)methyl]benzyl}-N-methyl-1,3-oxazole-4-carboxamide] | < 10
COc1cc(C)c(S(=O)(=O)N(Cc2nc(C(=O)N3CCN(c4cccnc4)CC3)co2)C2CC2)c(C)c1 [Ex 226, N-Cyclopropyl-4-methoxy-2,6-dimethyl-N-({4-[(4-pyridin-3-ylpiperazin-1-yl)carbonyl]-1,3-oxazol-2-yl}methyl)benzenesulfonamide] | 100 to 1000
COc1cc(C)c(S(=O)(=O)N(C)Cc2cc(C(=O)NCc3cc(CN4CCCC4)ccc3F)co2)c(C)c1 [Ex 151, N-[2-Fluoro-5-(pyrrolidin-1-ylmethyl)benzyl]-5-({[(4-methoxy-2,6-dimethylphenyl)sulfonyl](methyl)amino}methyl)furan-3-carboxamide trifluoroacetate] | 100 to 1000
COc1cc(C)c(S(=O)(=O)N(Cc2nc(C(=O)N3CCC(O)(/C=C/c4cccnc4)CC3)co2)C2CC2)c(C)c1 [Ex 240, N-Cyclopropyl-N-{[4-({4-hydroxy-4-[(E)-2-pyridin-3-ylethenyl]piperidin-1-yl}carbonyl)-1,3-oxazol-2-yl]methyl}-4-methoxy-2,6-dimethylbenzenesulfonamide trifluoroacetate] | 10 to 100
COc1cc(C)c(S(=O)(=O)N(Cc2cc(C(=O)N(C)CCc3ccc(C4=NCCN4)cc3)co2)C(C)C)c(C)c1 [Ex 48, N-{2-[4-(4,5-dihydro-1H-imidazol-2-yl)phenyl]ethyl}-5-({[(4-methoxy-2,6-dimethylphenyl)sulfonyl](1-methylethyl)amino}methyl)-N-methylfuran-3-carboxamide] | 10 to 100
COc1cc(C)c(S(=O)(=O)N(Cc2nc(C(=O)N(C)Cc3ccc(CN4CCCC(O)C4)cc3)co2)C2CC2)c(C)c1 (stereo not shown) [Ex 180, 2-({Cyclopropyl[(4-methoxy-2,6-dimethylphenyl)sulfonyl]amino}methyl)-N-{4-[(3-hydroxypiperidin-1-yl)methyl]benzyl}-N-methyl-1,3-oxazole-4-carboxamide] | < 10
COc1cc(C)c(S(=O)(=O)N(Cc2cc(C(=O)N(C)Cc3ccc(CN4CC(OC)C4)cc3)co2)C2CC2)c(C)c1 [Ex 149, 5-({Cyclopropyl[(4-methoxy-2,6-dimethylphenyl)sulfonyl]amino}methyl)-N-{4-[(3-methoxyazetidin-1-yl)methyl]benzyl}-N-methylfuran-3-carboxamide] | 100 to 1000
COc1cc(C)c(S(=O)(=O)N(Cc2cc(C(=O)N3CCCN(CCCN4CCCC4)CC3)co2)C2CC2)c(C)c1 [Ex 116, N-Cyclopropyl-4-methoxy-2,6-dimethyl-N-[(4-{[4-(3-pyrrolidin-1-ylpropyl)-1,4-diazepan-1-yl]carbonyl}furan-2-yl)methyl]benzenesulfonamide trifluoroacetate] | 10 to 100
COc1cc(C)c(S(=O)(=O)N(Cc2noc(C(=O)N3CCN(CCCN4CCCC4)CC3)n2)C2CC2)c(C)c1 [Ex 317, N-Cyclopropyl-4-methoxy-2,6-dimethyl-N-[(5-{[4-(3-pyrrolidin-1-ylpropyl)piperazin-1-yl]carbonyl}-1,2,4-oxadiazol-3-yl)methyl]benzenesulfonamide] | < 10
COc1cc(C)c(S(=O)(=O)N(C)Cc2nc(C(=O)N(C)Cc3nc(CN4CCCC4)cs3)co2)c(C)c1 [Ex 202, 2-({[(4-Methoxy-2,6-dimethylphenyl)sulfonyl](methyl)amino}methyl)-N-methyl-N-{[4-(pyrrolidin-1-ylmethyl)-1,3-thiazol-2-yl]methyl}-1,3-oxazole-4-carboxamide trifluoroacetate] | 10 to 100
COc1cc(C)c(S(=O)(=O)N(Cc2nc(C(=O)NCc3cccc(CN4CCCC4)c3)co2)C2CC2)c(C)c1 [Ex 78, 2-({Cyclopropyl[(4-methoxy-2,6-dimethylphenyl)sulfonyl]amino}methyl)-N-[3-(pyrrolidin-1-ylmethyl)benzyl]-1,3-oxazole-4-carboxamide] | < 10
COc1cc(C)c(S(=O)(=O)N(Cc2nnc(C(=O)N3CCN(CCN4CCCC4)CC3)o2)C2CC2)c(C)c1 [Ex 277, N-Cyclopropyl-4-methoxy-2,6-dimethyl-N-[(5-{[4-(2-pyrrolidin-1-ylethyl)piperazin-1-yl]carbonyl}-1,3,4-oxadiazol-2-yl)methyl]benzenesulfonamide] | 10 to 100
COc1cc(C)c(S(=O)(=O)N(C)Cc2nc(C(=O)N(C)Cc3ccc(CN4CCC(C(=O)N(C)C)C4)cc3)co2)c(C)c1 (stereo not shown) [Ex 171, N-(4-{[3-(Dimethylcarbamoyl)pyrrolidin-1-yl]methyl}benzyl)-2-({[(4-methoxy-2,6-dimethylphenyl)sulfonyl](methyl)amino}methyl)-N-methyl-1,3-oxazole-4-carboxamide] | < 10
COc1cc(C)c(S(=O)(=O)N(C)Cc2nc(C(=O)NCCc3ccc(C4=NCCN4)cc3)co2)c(C)c1 [Ex 67, N-{2-[4-(4,5-dihydro-1H-imidazol-2-yl)phenyl]ethyl}-2-({[(4-methoxy-2,6-dimethylphenyl)sulfonyl](methyl)amino}methyl)-1,3-oxazole-4-carboxamide] | < 10
COc1cc(C)c(S(=O)(=O)N(C)Cc2nnc(C(=O)N3CCN(Cc4ccc(N5CCCC5)nc4)CC3)o2)c(C)c1 [Ex 261, 4-Methoxy-N,2,6-trimethyl-N-{[5-({4-[(6-pyrrolidin-1-ylpyridin-3-yl)methyl]piperazin-1-yl}carbonyl)-1,3,4-oxadiazol-2-yl]methyl}benzenesulfonamide trifluoroacetate] | < 10
COc1cc(C)c(S(=O)(=O)N(C)Cc2cc(C(=O)N(C)CCc3ccc(C4=NCCN4C)cc3)co2)c(C)c1 [Ex 98, 5-({[(4-Methoxy-2,6-dimethylphenyl)sulfonyl](methyl)amino}methyl)-N-methyl-N-{2-[4-(1-methyl-4,5-dihydro-1H-imidazol-2-yl)phenyl]ethyl}furan-3-carboxamide trifluoroacetamide] | 100 to 1000
COc1cc(C)c(S(=O)(=O)N(C)Cc2cc(C(=O)NC(C)c3ccc(CN4CCC(O)C4)cc3)co2)c(C)c1 (stereo not shown) [Ex 91, N-(1-{4-[(3-Hydroxypyrrolidin-1-yl)methyl]phenyl}ethyl)-5-({[(4-methoxy-2,6-dimethylphenyl)sulfonyl](methyl)amino}methyl)furan-3-carboxamide] | 100 to 1000
COc1cc(C)c(S(=O)(=O)N(C)Cc2cc(C(=O)N(C)Cc3ccc(CN4CCC(NC(C)=O)C4)cc3)co2)c(C)c1 (stereo not shown) [Ex 132, N-(4-{[3-(Acetylamino)pyrrolidin-1-yl]methyl}benzyl)-5-({[(4-methoxy-2,6-dimethylphenyl)sulfonyl](methyl)amino}methyl)-N-methylfuran-3-carboxamide] | 100 to 1000
COc1cc(C)c(S(=O)(=O)N(Cc2nc(C(=O)N3CC4CN(Cc5ccc(OC)nc5)CC4C3)co2)C2CC2)c(C)c1 (stereo not shown) [Ex 209, N-Cyclopropyl-4-methoxy-N-{[4-({5-[(6-methoxypyridin-3-yl)methyl]hexahydropyrrolo[3,4-c]pyrrol-2(1H)-yl}carbonyl)-1,3-oxazol-2-yl]methyl}-2,6-dimethylbenzenesulfonamide trifluoroacetate] | 100 to 1000
COc1cc(C)c(S(=O)(=O)N(C)Cc2cc(C(=O)N3CCN(Cc4ccncc4)CC3)co2)c(C)c1 [Ex 34, 4-methoxy-N,2,6-trimethyl-N-[(4-{[4-(pyridin-4-ylmethyl)piperazin-1-yl]carbonyl}furan-2-yl)methyl]benzenesulfonamide] | 100 to 1000
COc1cc(C)c(S(=O)(=O)N(Cc2nc(C(=O)N3CCC(OC4CCN(C)C4)CC3)co2)C2CC2)c(C)c1 (stereo not shown) [Ex 247, N-Cyclopropyl-4-methoxy-2,6-dimethyl-N-{[4-({4-[(1-methylpyrrolidin-3-yl)oxy]piperidin-1-yl}carbonyl)-1,3-oxazol-2-yl]methyl}benzenesulfonamide] | 100 to 1000
COc1cc(C)c(S(=O)(=O)N(C)Cc2cc(C(=O)NC(C)c3ccc(CN4CCCC4)cc3)co2)c(C)c1 (stereo not shown) [Ex 90, 5-({[(4-Methoxy-2,6-dimethylphenyl)sulfonyl](methyl)amino}methyl)-N-{1-[4-(pyrrolidin-1-ylmethyl)phenyl]ethyl}furan-3-carboxamide] | 100 to 1000
CN1CCC(CN2CCN(C(=O)c3coc(CN(C)S(=O)(=O)c4c(Cl)cccc4Cl)c3)CC2)CC1 [Ex 17, 2,6-dichloro-N-methyl-N-{[4-({4-[(1-methylpiperidin-4-yl)methyl]piperazin-1-yl}carbonyl)furan-2-yl]methyl}benzenesulfonamide] | 100 to 1000
COc1cc(C)c(S(=O)(=O)N(C)Cc2cc(C(=O)N(C)Cc3nc(CN4CCCC4)cs3)co2)c(C)c1 [Ex 138, 5-({[(4-Methoxy-2,6-dimethylphenyl)sulfonyl](methyl)amino}methyl)-N-methyl-N-{[4-(pyrrolidin-1-ylmethyl)-1,3-thiazol-2-yl]methyl}furan-3-carboxamide] | < 10

Reference: patent US8623859B2, “Bradykinin B1 antagonists” (Evotec AG, priority 2008, dated 2014)
